Experimental data taken from US5916774A, “D-aminoacylase” (Daicel Chemical Industries, Ltd., priority 1997, dated 1999).
Read-outs that look alike come from different tables or passages of the source.

Columns and labels:
[1] = test system: D-aminoacylase derived from Amycolatopsis orientalis IFO 12806; assay: Influences of various metallic salts and reagents on D-aminoacylase activity; assay type: biochemical
Method: (§1) The enzyme activity was assayed according to TNBS method [Tokuyama, S., Hatano, K. and Takahashi, T., Biosci. Biotech. Biochem. 58, pp24 (1994)]. That is, a sample solution containing amino acid was added to 0.5 ml of the solution (C) (0.1M Na2 B4 O7), and brought up to a volume of 1.0 ml. To this mixture was added […] of 0.11M TNBS solution, and the resulting mixture was quickly mixed. Five min thereafter, absorption at 420 nm was measured.
In Table 5, the term "PCMB" means p-chloromercuribenzoic acid.

[2] = test system: D-aminoacylase derived from Amycolatopsis orientalis IFO 12806; assay: Substrate specificity of D-aminoacylase; assay type: biochemical; conditions: 20 mM substrate, 3 h; for Action of the enzyme on the substrate: pH 7.5, 30° C.; for Specific activity (%): N-acetyl-D-methionine taken as 100%, 50 mM Tris-HCl pH 7.5, 30° C.
Method: The enzymatic reaction was carried out in a total volume of 1.0 ml of a reaction system containing 20 mM N-acetyl-D-methionine (Sigma), 50 mM Tris-HCl buffer (pH 7.5), 1 mM CoCl2, and 100 μl of the enzyme solution at 30° C. for 60 min. The reaction was terminated by adding 0.5 ml of a TCA reaction terminating solution according to Tsai et al. (containing 0.11M trichloroacetic acid, 0.22M sodium acetate, and 0.33M acetic acid).
as §1
Substrate specificity of this enzyme was compared to, taking substrate specificity for N-acetyl-D-methionine as 100%, N-acetyl-D-valine, N-acetyl-D-phenylalanine, N-acetyl-D-leucine, N-acetyl-D-tryptophan, N-acetyl-D-asparagine, N-acetyl-L-methionine, N-acetyl-D-leucine, and N-acetyl-L-valine. The enzyme activity was assayed in 50 mM Tris-HCl buffer (pH 7.5) containing 100 μl of the enzyme solution and 20 mM of each substrate (total volume of 1.0 ml) at 30° C. for 3 h.

[3] = test system: Amycolatopsis orientalis IFO 12806; assay: Induction of D-aminoacylase production by inducers in culture; assay type: cell-based; conditions: for Specific activity / Total activity / Activity: crude enzyme solution of cells cultured with 0.1% inducer in ISP-2 medium, 30° C., 72 h; for Activity: 20 mM N-acetyl-D-methionine, pH 7.5, 10 min
Method: This microbial strain was cultured in ISP-2 liquid medium as used in Example 1 supplemented with or without N-acetyl-DL-methionine or DL-valine (Kanto Kagaku) (0.1% each) as the enzyme inducer with shaking at 160 rpm at 30° C. for 72 h.
After the incubation, the culture was centrifuged at 8000 rpm (7000×g) for 20 min with a Hitachi Koki refrigerated centrifuge to collect microbial cells. The cells were washed with 50 mM Tris-HCl buffer (pH 7.5) and then centrifuged again with the same centrifuge to harvest the cells to be used in the following processes. The cells were stored at -20° C.
The stored cells were suspended in 20 ml of 50 mM Tris-HCl (pH 7.5), ultrasonicated at 190 W for 10 min, and centrifuged with a Hitachi Koki refrigerated centrifuge at 14,000 rpm (20,000×g) for 20 min. The supernatant thus obtained was used as the crude enzyme solution.
The enzymatic reaction was performed in a total volume of 1.0 ml of a reaction system containing 20 mM N-acetyl-D-methionine, 50 mM Tris-HCl buffer (pH 7.5), 1 mM CoCl2, and 100 μl of the enzyme solution at 30° C. for 10 min. The reaction was terminated by adding a TCA reaction terminating solution.

[4] = reagent 1 mM, no addition = 100
[5] = reagent 1 mM, pH 7.5, 30° C., 60 min, no addition 0.22
[6] = reagent 10 mM, no addition = 100
[7] = reagent 10 mM, pH 7.5, 30° C., 60 min, no addition 0.22
[8] = metallic salt 1 mM, no addition = 100
[9] = metallic salt 1 mM, pH 7.5, 30° C., 60 min, no addition 0.25
[10] = metallic salt 10 mM, no addition = 100
[11] = metallic salt 10 mM, pH 7.5, 30° C., 60 min, no addition 0.25

Row | Action of the enzyme on the substrate [2] | Specific activity (%) [2] | SMILES | Specific activity (%), concentration 1 mM [1, 8] | Methionine produced, concentration 1 mM [1, 9] | Specific activity (%), concentration 10 mM [1, 10] | Methionine produced, concentration 10 mM [1, 11] | also measured
1 |  |  | [Cl-].[Na+] [Na^+ (NaCl), NaCl] |  |  |  |  | Specific activity (%), concentration 1 mM [1]: 84%; Specific activity (%), concentration 10 mM [1]: 152%; Methionine produced, concentration 1 mM ([1]; pH 7.5): 0.21 mM; Methionine produced, concentration 10 mM ([1]; pH 7.5): 0.36 mM
2 | acted well | 100% | CSCC[C@@H](NC(C)=O)C(=O)O [N-acetyl-D-methionine] |  |  |  |  | 
3 |  |  | O=C(O)c1cc[c]([Hg][Cl])cc1 [PCMB, p-chloromercuribenzoic acid, reference compound] |  |  |  |  | Effect on enzyme activity ([1]; concentration not given): inhibited; Specific activity (%), concentration 1 mM [1, 4]: 0%; Methionine produced, concentration 1 mM [1, 5]: 0 mM; Specific activity (%), concentration 10 mM [1, 6]: 0%; Methionine produced, concentration 10 mM [1, 7]: 0 mM
4 |  |  | CCN1C(=O)C=CC1=O [N-ethyl-maleimide, reference compound] |  |  |  |  | Specific activity (%), concentration 1 mM [1, 4]: 45%; Methionine produced, concentration 1 mM [1, 5]: 0.1 mM; Specific activity (%), concentration 10 mM [1, 6]: 0%; Methionine produced, concentration 10 mM [1, 7]: 0 mM
5 |  |  | [Cl][Fe][Cl] [F^e2+ (FeCl2), FeCl2] | 52% | 0.13 mM | 0% | 0 mM | 
6 | acted somewhat | 19% | CC(=O)N[C@H](CC(N)=O)C(=O)O [N-acetyl-D-asparagine] |  |  |  |  | 
7 |  |  | [Cl][Mn][Cl] [Mn^2+ (MnCl2), MnCl2] | 96% | 0.24 mM | 0% | 0 mM | 
8 |  |  | [Cl-].[K+] [K^+ (KCl), KCl] | 52% | 0.13 mM | 84% | 0.21 mM | 
9 | did not act | 0% | CC(=O)N[C@H](C(=O)O)C(C)C [N-acetyl-L-valine] |  |  |  |  | 
10 |  |  | O=C(O)CN(CCN(CC(=O)O)CC(=O)O)CC(=O)O [EDTA.2Na, reference compound] |  |  |  |  | Effect on enzyme activity [1]: inhibited; Specific activity (%), concentration 1 mM [1]: 0%; Specific activity (%), concentration 10 mM [1]: 0%; Methionine produced, concentration 1 mM ([1]; pH 7.5): 0 mM; Methionine produced, concentration 10 mM ([1]; pH 7.5): 0 mM
11 | acted somewhat | 54% | CC(=O)N[C@H](Cc1c[nH]c2ccccc12)C(=O)O [N-acetyl-D-tryptophan] |  |  |  |  | 
12 |  |  | OC(CS)C(O)CS (stereo not drawn) [dothiothreito, reference compound] |  |  |  |  | Specific activity (%), concentration 1 mM [1, 4]: 77%; Methionine produced, concentration 1 mM [1, 5]: 0.17 mM; Specific activity (%), concentration 10 mM [1, 6]: 68%; Methionine produced, concentration 10 mM [1, 7]: 0.15 mM
13 |  |  | O=C(O)CI [iodoactate, iodoacetate, reference compound] |  |  |  |  | Effect on enzyme activity [1]: inhibited; Specific activity (%), concentration 1 mM [1]: 64%; Specific activity (%), concentration 10 mM [1]: 50%; Methionine produced, concentration 1 mM ([1]; pH 7.5): 0.14 mM; Methionine produced, concentration 10 mM ([1]; pH 7.5): 0.11 mM
14 | acted somewhat | 36% | CC(=O)N[C@H](Cc1ccccc1)C(=O)O [N-acetyl-D-phenylalanine] |  |  |  |  | 
15 | did not act | 0% | CC(=O)N[C@@H](CC(C)C)C(=O)O [N-acetyl-L-leucine] |  |  |  |  | 
16 | acted well | 78% | CC(=O)N[C@H](CC(C)C)C(=O)O [N-acetyl-D-leucine] |  |  |  |  | 
17 |  |  | CSCCC(NC(C)=O)C(=O)O (racemic) [N-acetyl-DL-methionine] |  |  |  |  | Specific activity [3]: 36.0 mU/mg; Total activity [3]: 5.1 U; Activity [3]: 1.6 U/ml
18 | acted somewhat | 16% | CC(=O)N[C@H](C)C(=O)O [N-acetyl-D-alanine] |  |  |  |  | 
19 |  |  | [Cl-].[Cl-].[Co+2] [Co^2+ (CoCl2), CoCl2] | 208% | 0.52 mM | 108% | 0.27 mM | Effect on enzyme activity ([1]; 1 mM): significantly promoted; Effect on enzyme activity ([1]; 10 mM): did not do so
20 |  |  | [Cl][Ni][Cl] [Ni^2+ (NiCl2), NiCl2] | 48% | 0.12 mM | 68% | 0.17 mM | 
21 |  |  | [Ba+2].[Cl-].[Cl-] [Ba^2+ (BaCl2), BaCl2] |  | 0.19 mM | 176% | 0.44 mM | 
22 |  |  | [Cl-].[Cl-].[Zn+2] [Zn^2+ (ZnCl2), ZnCl2] | 0% | 0 mM | 0% | 0 mM | 
23 |  |  | CC(C)C(N)C(=O)O (racemic) [DL-valine] |  |  |  |  | Induction of D-aminoacylase ([3]; DL-valine compared with N-acetyl-DL-methionine as inducer): induced more strongly; Specific activity [3]: 144.0 mU/mg; Total activity [3]: 36.0 U; Activity [3]: 3.9 U/ml
24 |  | 33% | CC(=O)N[C@@H](C(=O)O)C(C)C [N-acetyl-D-valine] |  |  |  |  | 
25 |  |  | [Cl-].[Cl-].[Mg+2] [Mg^2+ (MgCl2), MgCl2] | 128% | 0.32 mM | 92% | 0.32 mM | 
26 |  |  | [Ca+2].[Cl-].[Cl-] [Ca^2+ (CaCl2), CaCl2] | 180% | 0.45 mM | 208% | 0.52 mM | Effect on enzyme activity ([1]; 1 mM): significantly promoted; Effect on enzyme activity ([1]; 10 mM): did not inhibit
27 |  |  | [Cl][Cu][Cl] [Cu^2+ (CuCl2), CuCl2] | 0% | 0 mM | 0% | 0 mM | Effect on enzyme activity ([1]; concentration not given): inhibited
28 |  |  | [Cl][Hg][Cl] [Hg^2+ (HgCl2), HgCl2] | 0% | 0 mM | 0% | 0 mM | Effect on enzyme activity ([1]; concentration not given): inhibited
29 | did not act | 0% | CSCC[C@H](NC(C)=O)C(=O)O [N-acetyl-L-methionine] |  |  |  |  | 
